Test results taken from patent US20210227814A1, “A TRANSGENIC INVERTEBRATE MODEL FOR ALZHEIMER'S DISEASE AND USE THEREOF” (National Center for Geriatrics and Gerontology, priority 2017, published 2021).

Experiments:
Assay type in all cases: in vivo
[1] = tested on: transgenic Drosophila expressing GALT6 and SAT1; assay: LC-MS of GM3 ganglioside production in transgenic Drosophila; conditions: Neu5Ac feeding (+) vs (−), 10 mM Neu5Ac/150 mM sucrose solution, heads of adults
Protocol: The obtained Drosophila strains were grown on Ebios Cornmeal Sucrose Agar medium at a temperature of 25° C., and in a light-dark cycle of 12 hours. In order to provide a sialic acid donor substrate Neu5Ac, Drosophila was allowed to freely lick filter paper soaked with a 10 mM Neu5Ac/150 mM sucrose solution for 24 hours every other day for 1 to 2 weeks. In order to check whether GM3 ganglioside is produced in the transgenic Drosophila strains prepared, liquid chromatography mass spectrometry (LC-MS) was carried out. The spectrometry was carried out with respect to the following Drosophila strains: (1) wild type (Neu5Ac feeding (−)) (negative control) (2) transgenic Drosophila expressing GALT6 alone (Neu5Ac feeding (−)), (3) transgenic Drosophila expressing GALT6 and SAT1 (Neu5Ac feeding (−)), (4) transgenic Drosophila expressing GALT6 and SAT1 (Neu5Ac feeding (+)), (5) transgenic Drosophila expressing SAT1 alone (Neu5Ac feeding (+)), and (6) transgenic Drosophila expressing GALT6, SAT1 and GNE (Neu5Ac feeding (−)). For each of the transgenic Drosophila strains, 200 to 1000 heads of adults were collected. To the heads, TBS buffer (50 mM Tris-HCl (pH7.6), 150 mM NaCl) was added, and the mixture was homogenized, and then dried. The obtained pellet was suspended in a solution mixture of chloroform: methanol (v/v=2:1) and a lipid extraction liquid was collected. […]

[2] = tested on: transgenic Drosophila strain expressing GALT6, SAT1 and Dut40; assay: Western blotting of aggregated Aβ (TBS insoluble fraction) in brain tissue; conditions: Neu5Ac feeding (+) compared to (−), GALT6, SAT1 and Dut40 flies
Protocol: The obtained Drosophila strains were grown on Ebios Cornmeal Sucrose Agar medium at a temperature of 25° C., and in a light-dark cycle of 12 hours. In order to provide a sialic acid donor substrate Neu5Ac, Drosophila was allowed to freely lick filter paper soaked with a 10 mM Neu5Ac/150 mM sucrose solution for 24 hours every other day for 1 to 2 weeks. To confirm whether of GM3 ganglioside-dependent aggregated Aβ is accumulated in the transgenic Drosophila co-expressing GM3 ganglioside and Dut40, a sample prepared from the brain tissue of a transgenic Drosophila strain expressing GALT6, SAT1 and Dut40, was subjected to western blotting. From 100 heads of adults of each of the transgenic Drosophila strain expressing GALT6, SAT1 and Dut40 (Neu5Ac feeding (−)) and the transgenic Drosophila expressing GALT6, SAT1 and Dut40 (Neu5Ac feeding (+)), were collected, homogenized in TBS buffer and subjected to ultracentrifugation (100,000 g, one hour, 4° C.). The supernatant was collected (TBS soluble fraction). The remaining sediment was again homogenized in 100% formic acid and centrifuged (14,000 rpm, 20 minutes, 25° C.) to remove unnecessary components. […] Bands were detected by ECL western blotting detection system (GE Healthcare Life Sciences). The bands detected were analyzed by Image Analysis Software (ImageJ, made by the National Institutes of Health) to convert into numerical values. […]

[3] = tested on: transgenic Drosophila strains expressing Dut40; assay: Western blotting of aggregated Aβ in Drosophila expressing only Dut40; conditions: Neu5Ac feeding (−) or (+); flies expressing Dut40 only

SMILES: CC(=O)N[C@H]1[C@H]([C@@H](O)[C@@H](O)CO)O[C@@](O)(C(=O)O)C[C@@H]1O [Neu5Ac]
- production of GM3 ganglioside [1]: confirmed
- amount of aggregated Dut40 [2]: increased
- effect on the aggregation of Dut40 [3]: does not have an effect
